From patent US11110082B2, “Tyrosine kinase inhibitors” (Rigel Pharmaceuticals, Inc., priority 2016, dated 2021)

target: T1, MerTK (Homo sapiens, UniProt Q12866); test: PAKT HTRF-HUVEC assay (pAkt Ser473 HTRF after anti-human MerTK-XL stimulation); type: cell-based; conditions: HUVEC cells, 1 hour compound, stimulated with anti-human MerTK-XL 1 ug/mL for 10 minutes, read-out: inhibition of MerTK
T1 construct: Seed HUVECs (10K cells/well) in EBM-2 complete media; host or cells: HUVEC (primary human umbilical vein endothelial cells)
T1 sequence (Q12866 21-999): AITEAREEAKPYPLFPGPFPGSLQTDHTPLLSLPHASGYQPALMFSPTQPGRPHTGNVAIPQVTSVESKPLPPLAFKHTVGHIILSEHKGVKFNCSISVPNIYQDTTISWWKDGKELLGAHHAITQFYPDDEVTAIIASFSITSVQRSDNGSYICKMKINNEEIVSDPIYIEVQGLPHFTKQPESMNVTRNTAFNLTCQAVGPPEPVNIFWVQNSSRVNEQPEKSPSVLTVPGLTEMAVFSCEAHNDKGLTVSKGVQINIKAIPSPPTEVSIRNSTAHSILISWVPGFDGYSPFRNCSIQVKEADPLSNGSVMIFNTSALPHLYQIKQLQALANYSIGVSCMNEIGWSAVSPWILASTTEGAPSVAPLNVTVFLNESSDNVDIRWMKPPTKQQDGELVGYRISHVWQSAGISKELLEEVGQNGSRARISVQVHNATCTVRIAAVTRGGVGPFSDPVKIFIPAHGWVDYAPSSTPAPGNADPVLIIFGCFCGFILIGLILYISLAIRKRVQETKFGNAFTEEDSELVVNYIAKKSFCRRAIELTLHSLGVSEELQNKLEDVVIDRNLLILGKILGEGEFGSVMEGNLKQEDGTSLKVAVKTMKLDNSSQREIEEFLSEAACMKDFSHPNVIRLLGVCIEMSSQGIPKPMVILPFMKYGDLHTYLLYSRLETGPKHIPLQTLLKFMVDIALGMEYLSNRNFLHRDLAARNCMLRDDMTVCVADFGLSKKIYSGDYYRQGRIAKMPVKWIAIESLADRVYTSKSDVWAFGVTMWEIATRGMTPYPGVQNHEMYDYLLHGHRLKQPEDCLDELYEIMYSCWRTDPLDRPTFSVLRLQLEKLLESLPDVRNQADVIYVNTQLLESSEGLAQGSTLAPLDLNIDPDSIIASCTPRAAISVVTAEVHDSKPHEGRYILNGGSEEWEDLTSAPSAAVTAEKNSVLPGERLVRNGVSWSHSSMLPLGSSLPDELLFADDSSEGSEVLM
Experimental: Example 4: PAKT HTRF-HUVEC Assay Phospho Akt (Ser473) Assay kit-10,000 tests (Cisbio US, 64[…]) HUVEC cells (Lonza, CC-2519) Anti-human MerTK antibody (Clone 125518) (R&D Systems, MAB8912) Method Seed HUVECs (10K cells/well) in EBM-2 complete media (EBM-2 basal medium plus EGM-2 BulletKit supplements) overnight at 37° C., 5% CO2 in Costar 96-well white clear-bottom plates. Remove culture media and starve cells for 3-4 hours in 50 μL/well EBM-2 basal medium. Perform serial dilution of compounds in DMSO from 2.5 mM in 4-fold dilutions, and then dilute 1:125 in EBM-2 basal media. Mix 50 μL/well 2x compounds with 50 μL/well HUVECs in duplicate in Costar 96-well white clear-bottom plates. Incubate plates for 1 hour at 37° C., 5% CO2. Cross-link anti-human MerTK antibody to Biotin-SP-conjugated anti-mouse IgG antibody (1:1) to give final concentrations of 5 ug/mL of anti-human MerTK-XL. Stimulate HUVECs with 25 μL/well 5x anti-human MerTK-XL to give final concentrations of 1 ug/mL for 10 minutes at 37° C., 5% CO2. Completely remove media and lyse HUVECs with 40 uL/WELL per well of Cisbio HTRF 1× lysis buffer. Performed pAkt(Ser473) HTRF assay in ProxiPlate-384 Plus, white 384-shallow well microplate according to the vendor protocol and read plates with a SpectralMax Paradigm plate reader. Enter the HTRF values into Athena (Rigel) for curve fitting, EC50 calculation, and database storage.

SMILES	EC50
CCC(F)(F)CNc1ncc2c3ccc(CN4CCOCC4)cc3c(=O)n([C@H]3CC[C@H](O)CC3)c2n1 [Compound 1, trans-3-((2,2-Difluorobutyl)amino)-5-(4-hydroxycyclohexyl)-8-(morpholinomethyl)pyrimido [4,5-c]isoquinolin-6(5H)-one]	247 nM
CCCCNc1ncc2c3ccc(CN4CCOCC4)cc3c(=O)n([C@H]3CC[C@H](O)CC3)c2n1 [Compound 2, trans-3-(Butylamino)-5-(4-hydroxycyclohexyl)-8-(morpholinomethyl)pyrimido [4,5-c]isoquinolin-6(5H)-one]	44.2 nM
CCCCNc1ncc2c3ccc(CN4CCN(C)CC4)cc3c(=O)n([C@H]3CC[C@H](O)CC3)c2n1 [Compound 3, trans-3-(Butylamino)-5-(4-hydroxycyclohexyl)-8-((4-methylpiperazin-1-yl)methyl)pyrimido[4,5-c]isoquinolin-6(5H)-one]	28.8 nM
CCCCNc1ncc2c3ccc(CN4CCN(C)CC4)cc3c(=O)n([C@H]3CC[C@@H](O)CC3)c2n1 [Compound 5, cis-3-(Butylamino)-5-(4-hydroxycyclohexyl)-8-((4-methylpiperazin-1-yl)methyl)pyrimido[4,5-c]isoquinolin-6(5H)-one]	98 nM
CCCCNc1ncc2c3ccc(CN4CCN(C)CC4)cc3c(=O)n(CC3CCC(O)CC3)c2n1 (centres unmarked) [Compound 6, 3-(Butylamino)-5-((4-hydroxycyclohexyl)methyl)-8-((4-methylpiperazin-1-yl)methyl)pyrimido[4,5-c]isoquinolin-6(5H)-one]	2040 nM
CN1CCN(Cc2ccc3c(c2)c(=O)n([C@H]2CC[C@H](O)CC2)c2nc(NC4CC(F)(F)C4)ncc32)CC1 [Compound 12, trans-3-((3,3-Difluorocyclobutyl)amino)-5-(4-hydroxycyclohexyl)-8-((4-methylpiperazin-1-yl)methyl)pyrimido[4,5-c]isoquinolin-6(5H)-one]	116 nM
CN1CCN(Cc2ccc3c(c2)c(=O)n([C@H]2CC[C@H](O)CC2)c2nc(NC4CC(F)C4)ncc32)CC1 (stereo partly drawn) [Compound 13, trans-3-((3-Fluorocyclobutyl)amino)-5-(4-hydroxycyclohexyl)-8-((4-methylpiperazin-1-yl)methyl)pyrimido[4,5-c]isoquinolin-6(5H)-one]	144 nM
CCCCNc1ncc2c3ccc(CN4CCN(C)CC4)cc3c(=O)n(C3CCC(C)(O)CC3)c2n1 (stereo not drawn) [Compound 15, trans-3-(Butylamino)-5-(4-hydroxy-4-methylcyclohexyl)-8-((4-methylpiperazin-1-yl)methyl)pyrimido[4,5-c]isoquinolin-6(5H)-one]	5.9 nM
CCC1(CNc2ncc3c4ccc(CN5CCN(C)CC5)cc4c(=O)n([C@H]4CC[C@H](O)CC4)c3n2)CCC1 [Compound 18, trans-3-(((1-Ethylcyclobutyl)methyl)amino)-5-(4-hydroxycyclohexyl)-8-((4-methylpiperazin-1-yl)methyl)pyrimido[4,5-c]isoquinolin-6(5H)-one]	277 nM
CCC1(CNc2ncc3c4ccc(CN5CCN(C)CC5)cc4c(=O)n([C@H]4CC[C@H](O)CC4)c3n2)CC1 [Compound 22, trans-3-(((1-Ethylcyclopropyl)methyl)amino)-5-(4-hydroxycyclohexyl)-8-((4-methylpiperazin-1-yl)methyl)pyrimido[4,5-c]isoquinolin-6(5H)-one]	589 nM
CN1CCN(Cc2ccc3c(c2)c(=O)n([C@H]2CC[C@H](O)CC2)c2nc(NCCCC(F)(F)F)ncc32)CC1 [Compound 25, trans-5-(4-hydroxycyclohexyl)-8-((4-methylpiperazin-1-yl)methyl)-3-((4,4,4-trifluorobutyl)amino)pyrimido [4,5-c]isoquinolin-6(5H)-one]	1680 nM
CN1CCN(Cc2ccc3c(c2)c(=O)n([C@H]2CC[C@H](O)CC2)c2nc(NCCC4CC4)ncc32)CC1 [Compound 26, trans-3-((2-Cyclopropylethyl)amino)-5-(4-hydroxycyclohexyl)-8-((4-methylpiperazin-1-yl)methyl)pyrimido[4,5-c]isoquinolin-6(5H)-one]	16.7 nM

Next, values leading:

EC50	SMILES
11900 nM	O=c1c2cc(CN3CC[N@+]4([O-])CC[C@@H]3CC4)ccc2c2cnc(NCC3CC3)nc2n1C1CCC(O)CC1 (relative stereo) [Compound 51, trans-4-((3-((Cyclopropylmethyl)amino)-5-(4-hydroxycyclohexyl)-6-oxo-5,6-dihydropyrimido[4,5-c]isoquinolin-8-yl)methyl)-1,4-diazabicyclo[3.2.2]nonane 1-oxide]
174 nM	CCCCNc1ncc2c3ccc(CN4CCOCC4)cc3c(=O)n([C@H]3CC[C@@H](O)CC3)c2n1 [Compound 4, cis-3-(Butylamino)-5-(4-hydroxycyclohexyl)-8-(morpholinomethyl)pyrimido [4,5-c]isoquinolin-6(5H)-one]
116 nM	CCCCNc1ncc2c3ccc(CN4CCOCC4)cc3c(=O)n(CC3CCC(N)CC3)c2n1 (centres unmarked) [Compound 9, 5-((4-Aminocyclohexyl)methyl)-3-(butylamino)-8-(morpholinomethyl)pyrimido [4,5-c]isoquinolin-6(5H)-one]
146 nM	CCCCNc1ncc2c3ccc(CN4CCN(C)CC4)cc3c(=O)n(CC3CCC(N)CC3)c2n1 (centres unmarked) [Compound 10, 5-((4-Aminocyclohexyl)methyl)-3-(butylamino)-8-((4-methylpiperazin-1-yl)methyl)pyrimido[4,5-c]isoquinolin-6(5H)-one]
56.4 nM	CCCCNc1ncc2c3ccc(CN4CCN(C)CC4)cc3c(=O)n(C3CC4(CC(O)C4)C3)c2n1 (centres unmarked) [Compound 14, 3-(Butylamino)-5-(6-hydroxyspiro[3.3]heptan-2-yl)-8-((4-methylpiperazin-1-yl)methyl)pyrimido[4,5-c]isoquinolin-6(5H)-one]
63.9 nM	CN1CCN(Cc2ccc3c(c2)c(=O)n([C@H]2CC[C@H](O)CC2)c2nc(NCC4CC4)ncc32)CC1 [Compound 16, trans-3-((Cyclopropylmethyl)amino)-5-(4-hydroxycyclohexyl)-8-((4-methylpiperazin-1-yl)methyl)pyrimido[4,5-c]isoquinolin-6(5H)-one]
68 nM	CCCCNc1ncc2c3ccc(CN4CCN(C)CC4)cc3c(=O)n([C@H]3CC[C@@](C)(O)CC3)c2n1 [Compound 17, cis-3-(Butylamino)-5-(4-hydroxy-4-methylcyclohexyl)-8-((4-methylpiperazin-1-yl)methyl)pyrimido[4,5-c]isoquinolin-6(5H)-one]
697 nM	CCC1(CNc2ncc3c4ccc(CN5CCOCC5)cc4c(=O)n([C@H]4CC[C@H](O)CC4)c3n2)CCC1 [Compound 19, trans-3-(((1-Ethylcyclobutyl)methyl)amino)-5-(4-hydroxycyclohexyl)-8-(morpholinomethyl)pyrimido [4,5-c]isoquinolin-6(5H)-one]
30.7 nM	O=c1c2cc(CN3CCOCC3)ccc2c2cnc(NCC3CCC3)nc2n1[C@H]1CC[C@H](O)CC1 [Compound 21, trans-3-((Cyclobutylmethyl)amino)-5-(4-hydroxycyclohexyl)-8-(morpholinomethyl)pyrimido [4,5-c]isoquinolin-6(5H)-one]
1180 nM	CCC1(CNc2ncc3c4ccc(CN5CCOCC5)cc4c(=O)n([C@H]4CC[C@H](O)CC4)c3n2)CC1 [Compound 23]
221 nM	CCC(F)(F)CNc1ncc2c3ccc(CN4CCN(C)CC4)cc3c(=O)n([C@H]3CC[C@H](O)CC3)c2n1 [Compound 24, trans-3-((2,2-Difluorobutyl)amino)-5-(4-hydroxycyclohexyl)-8-((4-methylpiperazin-1-yl)methyl)pyrimido[4,5-c]isoquinolin-6(5H)-one]
